Where no end group is shown, it is not given here.
system: ovarian cancer cell aggregation and spheroid formation; assay: Spheroid assay for peptides (visual scale +1 to +5); assay type: cell-based, human; details: 24 hrs; visual scale of +1 to +5; Control = 2
Procedure: Spheroids were formed from the NIH:OVCAR5 cell lines described above using the liquid overlay method. One milliliter of a single cell suspension was seeded at a concentration of 50,000 cells/ml in OptiMEM® media, into 24-well tissue culture plates coated with 0.5% Seakem agarose (in complete RPMI-1640). Plates were incubated at 37° C. in a humidified incubator with 5% CO2. At various time points up to 5 days, the plates were removed from the incubator and the spheroids were photographed with a Nikon CoolPix digital camera mounted on an Olympus CK2 inverted microscope with a 4× objective. The size of the spheroids was determined using the measure tool in Adobe Photoshop. The largest spheroids were quantified (20-90 spheroids/well), in a minimum of 8 wells, for a total of >300 spheroids per cell type.
The clinical relevance is that by blocking the formation of spheroids, the cells will be more sensitive to chemotherapy (which targets the single cells that proliferate more rapidly than spheroids).
The spheroid assay for peptides 1-30 were scored using a visual scale of +1 to +5. The controls were scored at +2 (24 hrs) and +4 (48 hrs). […] It may be harder to visually assess the size at 24 hours, since the spheroids are relatively small, but and perhaps some of the peptides are affecting cell division, and that is why the spheroids are smaller than the controls at 48 hours, but not 24 hrs (this can be easily assayed with an MTT assay).

| Substance | Spheroid-24 |
| --- | --- |
| PEVTIEGFDGNW-NH2 (listed as Homo sapiens) [Peptide 48] | 1 |
| PPPRNPLDGSVLLR-NH2 (listed as Homo sapiens) [Peptide 7] | 3 |
| RLKGEAEYQEIRNP-NH2 (listed as Homo sapiens) [Peptide 43] | 5 |
| RVDGDTLGFPPLTT-NH2 (listed as Homo sapiens) [Peptide 23] | 1 |
| SGKQVDLVSAS-NH2 (listed as Homo sapiens) [Peptide 27] | 1 |
| SNEFSSRDSQVTVD-NH2 (listed as Homo sapiens) [Peptide 25] | 2 |
| TCVVSHPGLLQDQR-NH2 (listed as Homo sapiens) [Peptide 17] | 1 |

same assay, conditions: 48 hrs; visual scale of +1 to +5; Control = 4

| Substance | Spheroid-48 |
| --- | --- |
| LWHIGREGAMLKCL-NH2 (listed as Homo sapiens) [Peptide 20] | 2 |
| PEVTIEGFDGNW-NH2 (listed as Homo sapiens) [Peptide 48] | 2 |
| RPSFTDGTIRLS-NH2 (listed as Homo sapiens) [Peptide 36] | 3 |
| RVDGDTLGFPPLTT-NH2 (listed as Homo sapiens) [Peptide 23] | 2 |
| SGKQVDLVSAS-NH2 (listed as Homo sapiens) [Peptide 27] | 2 |
| TCVVSHPGLLQDQR-NH2 (listed as Homo sapiens) [Peptide 17] | 2 |

same assay, conditions: at 24 hrs

| Substance | spheroid size relative to the control (in words) |
| --- | --- |
| PPPRNPLDGSVLLR-NH2 (listed as Homo sapiens) [Peptide 7] | slightly larger spheroid size |

system: nectin 4 protein on NIH:OVCAR-5 cells; assay: Effect of peptides on anti-Nectin-4 antibody binding to cells as determined by flow cytometry; assay type: cell-based, human; details: Run Four; 150 μg/mL peptide, 30 minutes; Control 4 = 9,631.58
Procedure: Confluent monolayers of cells were detached from 75 cm^2 tissue culture flasks using Accutase cell dissociation buffer (Innovative Cell Technologies, San Diego, Calif.), washed, and labeled with mouse IgG or mAbs against Nectin-4 or Nectin-1 (2.5 μg/10^6 cells) in Flow Buffer [phosphate buffered saline (PBS) containing 2.5% newborn calf serum and 0.02% sodium azide] for 30 min at 4° C.. Cells were washed and incubated with goat anti-mouse IgG F(ab′)2 (Jackson ImmunoResearch, West Grove, Pa.), then washed again and incubated with streptavidin-allophycocyanin conjugate (Jackson ImmunoResearch, West Grove, Pa.) for 30 min each. Cells were washed and fixed in Flow Buffer containing 1% formaldehyde and analyzed in the University of Minnesota Flow Cytometry Resource with a BD Accuri™ C6 flow cytometer (BD Biosciences, San Jose, Calif.) using the Accuri™ software.
Briefly, NIH:OVCAR-5 cells that natively express a moderate amount of nectin 4 protein were incubated for 30 minutes in 150 μg/mL of soluble peptide in DMSO. After incubation, the cells were washed, and then triple antibody stained using mouse anti-nectin 4 (or IgG control) primary antibody, biotinylated goat anti-mouse secondary antibody, and streptavidin APC tertiary antibody. Finally, utilizing the University of Minnesota flow core's Accuri C6 flow cytometer, the relative antibody binding affinity for control and peptide-treated samples was quantitated and compared. Data was collected for each of the 57 peptides generated.

| Substance | N4 MFI |
| --- | --- |
| PEVTIEGFDGNW-NH2 (listed as Homo sapiens) [Peptide 48] | 10,595.37 |
| RLKGEAEYQEIRNP-NH2 (listed as Homo sapiens) [Peptide 43] | 9,677.93 |

same assay, conditions: Run Four; Control 4 = 9.387504873

| Substance | N4 MFI/IgG MFI |
| --- | --- |
| PEVTIEGFDGNW-NH2 (listed as Homo sapiens) [Peptide 48] | 9.911 |
| RLKGEAEYQEIRNP-NH2 (listed as Homo sapiens) [Peptide 43] | 7.399 |

same assay, conditions: Run Four; IgG control primary antibody; Control 4 = 1,026

| Substance | IgG MFI |
| --- | --- |
| PEVTIEGFDGNW-NH2 (listed as Homo sapiens) [Peptide 48] | 1069 |
| RLKGEAEYQEIRNP-NH2 (listed as Homo sapiens) [Peptide 43] | 1308 |

same assay, conditions: Run Four; antibody binding relative to Control 4 = 100

| Substance | nectin-4 antibody binding, percent of control |
| --- | --- |
| PEVTIEGFDGNW-NH2 (listed as Homo sapiens) [Peptide 48] | 110.7 |
| RLKGEAEYQEIRNP-NH2 (listed as Homo sapiens) [Peptide 43] | 97.26 |

same assay, conditions: Run One; 150 μg/mL peptide, 30 minutes; Control 1 = 15,015

| Substance | N4 MFI |
| --- | --- |
| LWHIGREGAMLKCL-NH2 (listed as Homo sapiens) [Peptide 20] | 17,636 |
| PPPRNPLDGSVLLR-NH2 (listed as Homo sapiens) [Peptide 7] | 18,342 |
| TCVVSHPGLLQDQR-NH2 (listed as Homo sapiens) [Peptide 17] | 20,511 |

same assay, conditions: Run One; 150 μg/mL peptide, 30 minutes; IgG control primary antibody; Control 1 = 1,670

| Substance | IgG MFI |
| --- | --- |
| LWHIGREGAMLKCL-NH2 (listed as Homo sapiens) [Peptide 20] | 1,890 |
| PPPRNPLDGSVLLR-NH2 (listed as Homo sapiens) [Peptide 7] | 1,255 |
| TCVVSHPGLLQDQR-NH2 (listed as Homo sapiens) [Peptide 17] | 8,686 |

same assay, conditions: Run One; Control 1 = 8.99

| Substance | N4 MFI/IgG MFI |
| --- | --- |
| LWHIGREGAMLKCL-NH2 (listed as Homo sapiens) [Peptide 20] | 9.33 |
| PPPRNPLDGSVLLR-NH2 (listed as Homo sapiens) [Peptide 7] | 14.62 |
| TCVVSHPGLLQDQR-NH2 (listed as Homo sapiens) [Peptide 17] | 2.36 |

same assay, conditions: Run One; antibody binding relative to Control 1 = 100.00

| Substance | nectin-4 antibody binding, percent of control |
| --- | --- |
| LWHIGREGAMLKCL-NH2 (listed as Homo sapiens) [Peptide 20] | 117.99 |
| PPPRNPLDGSVLLR-NH2 (listed as Homo sapiens) [Peptide 7] | 128.04 |
| TCVVSHPGLLQDQR-NH2 (listed as Homo sapiens) [Peptide 17] | 88.61 |

same assay, conditions: Run Three; 150 μg/mL peptide, 30 minutes; Control 3 = 13,070.20

| Substance | N4 MFI |
| --- | --- |
| RPSFTDGTIRLS-NH2 (listed as Homo sapiens) [Peptide 36] | 13,633.18 |

same assay, conditions: Run Three; Control 3 = 9.83

| Substance | N4 MFI/IgG MFI |
| --- | --- |
| RPSFTDGTIRLS-NH2 (listed as Homo sapiens) [Peptide 36] | 7.80 |

same assay, conditions: Run Three; IgG control primary antibody; Control 3 = 1330

| Substance | IgG MFI |
| --- | --- |
| RPSFTDGTIRLS-NH2 (listed as Homo sapiens) [Peptide 36] | 1748 |

same assay, conditions: Run Three; antibody binding relative to Control 3 = 100.00

| Substance | nectin-4 antibody binding, percent of control |
| --- | --- |
| RPSFTDGTIRLS-NH2 (listed as Homo sapiens) [Peptide 36] | 101.23 |

same assay, conditions: Run Two; 150 μg/mL peptide, 30 minutes; Control 2 = 49,491

| Substance | N4 MFI |
| --- | --- |
| RVDGDTLGFPPLTT-NH2 (listed as Homo sapiens) [Peptide 23] | 18,902 |
| SGKQVDLVSAS-NH2 (listed as Homo sapiens) [Peptide 27] | 22,824 |
| SNEFSSRDSQVTVD-NH2 (listed as Homo sapiens) [Peptide 25] | 7,756 |

same assay, conditions: Run Two; Control 2 = 9.46

| Substance | N4 MFI/IgG MFI |
| --- | --- |
| RVDGDTLGFPPLTT-NH2 (listed as Homo sapiens) [Peptide 23] | 5.66 |
| SGKQVDLVSAS-NH2 (listed as Homo sapiens) [Peptide 27] | 5.57 |
| SNEFSSRDSQVTVD-NH2 (listed as Homo sapiens) [Peptide 25] | 2.16 |

same assay, conditions: Run Two; IgG control primary antibody; Control 2 = 5,233

| Substance | IgG MFI |
| --- | --- |
| RVDGDTLGFPPLTT-NH2 (listed as Homo sapiens) [Peptide 23] | 3,342 |
| SGKQVDLVSAS-NH2 (listed as Homo sapiens) [Peptide 27] | 4,099 |
| SNEFSSRDSQVTVD-NH2 (listed as Homo sapiens) [Peptide 25] | 3,584 |

same assay, conditions: Run Two; antibody binding relative to Control 2 = 100.00

| Substance | nectin-4 antibody binding, percent of control |
| --- | --- |
| RVDGDTLGFPPLTT-NH2 (listed as Homo sapiens) [Peptide 23] | 35.16 |
| SGKQVDLVSAS-NH2 (listed as Homo sapiens) [Peptide 27] | 42.31 |
| SNEFSSRDSQVTVD-NH2 (listed as Homo sapiens) [Peptide 25] | 9.43 |

same assay, conditions: flow cytometry; 150 μg/mL peptide

| Substance | nectin-4 antibody binding compared to untreated control cells (in words) |
| --- | --- |
| LWHIGREGAMLKCL-NH2 (listed as Homo sapiens) [Peptide 20] | increased binding of nectin-4 antibody |
| PPPRNPLDGSVLLR-NH2 (listed as Homo sapiens) [Peptide 7] | increased the binding of the Nectin-4 antibody to cells |
| RVDGDTLGFPPLTT-NH2 (listed as Homo sapiens) [Peptide 23] | reduction in nectin-4 antibody binding |
| SGKQVDLVSAS-NH2 (listed as Homo sapiens) [Peptide 27] | reduction in nectin-4 antibody binding |
| SNEFSSRDSQVTVD-NH2 (listed as Homo sapiens) [Peptide 25] | reduction in nectin-4 antibody binding |

same assay, conditions: summary table; Nectin-4 antibody binding relative to control = 100

| Substance | Flow binding [%] |
| --- | --- |
| LWHIGREGAMLKCL-NH2 (listed as Homo sapiens) [Peptide 20] | 118 |
| PPPRNPLDGSVLLR-NH2 (listed as Homo sapiens) [Peptide 7] | 128 |
| RVDGDTLGFPPLTT-NH2 (listed as Homo sapiens) [Peptide 23] | 35 |
| SGKQVDLVSAS-NH2 (listed as Homo sapiens) [Peptide 27] | 42 |
| SNEFSSRDSQVTVD-NH2 (listed as Homo sapiens) [Peptide 25] | 9.40 |

Reference: US10907212B2, “Inhibitors of cell adhesion” (Regents of the University of Minnesota, priority 2016, dated 2021)
